According to the NIST ThermoML archive (doi:10.1007/s10765-009-0648-5):

How the values were obtained:
[1] = 101 kPa, Liquid
[2] = wn = mass fraction of the nth substance listed; settings: 101 kPa, Liquid

C[S+](C)[O-] [dimethyl sulfoxide]
[1]
Settings	mass density [kg/m3]	speed of sound [m/s]
288.15 K	1105.34	1519.1
293.15 K	1100.31	1502.2
298.15 K	1095.28	1485.2
303.15 K	1090.25	1468.3
308.15 K	1085.23	1451.5

CCC[n+]1ccn(C)c1.[Br-] [1-methyl-3-propylimidazolium bromide]
[1]
Settings	mass density [kg/m3]	speed of sound [m/s]
288.15 K	1323.47	1699.3
293.15 K	1319.84	1685
298.15 K	1316.22	1672
303.15 K	1312.6	1659.9
308.15 K	1308.97	1648.3

CCC[n+]1ccn(C)c1.[Br-] [1-methyl-3-propylimidazolium bromide] + C[S+](C)[O-]
[2]
Settings	mass density, 288.15 K [kg/m3]	mass density, 293.15 K [kg/m3]	mass density, 298.15 K [kg/m3]	mass density, 303.15 K [kg/m3]	mass density, 308.15 K [kg/m3]	speed of sound, 288.15 K [m/s]	speed of sound, 293.15 K [m/s]	speed of sound, 298.15 K [m/s]	speed of sound, 303.15 K [m/s]	speed of sound, 308.15 K [m/s]
w1 = 0.0077	1107.07	1102.06	1097.05	1092.04	1087.03	1520.9	1504.2	1487.3	1470.4	1453.6
w1 = 0.0102	1107.62	1102.61	1097.6	1092.6	1087.6	1521.5	1504.7	1487.8	1470.9	1454.2
w1 = 0.012	1108.05	1103.04	1098.04	1093.03	1088.03	1521.9	1505.2	1488.3	1471.4	1454.7
w1 = 0.0159	1108.91	1103.91	1098.91	1093.92	1088.93	1523	1506	1489.2	1472.3	1455.7
w1 = 0.0203	1109.88	1104.88	1099.89	1094.91	1089.93	1523.8	1507	1490.2	1473.4	1456.7
w1 = 0.0252	1110.97	1105.98	1100.99	1096.02	1091.04	1524.8	1507.8	1491	1474.2	1457.6
w1 = 0.0297	1111.95	1106.98	1102	1097.03	1092.07	1525.8	1509.1	1492.3	1475.5	1458.9
w1 = 0.0356	1113.27	1108.3	1103.33	1098.37	1093.42	1527	1510.4	1493.6	1476.9	1460.3
w1 = 0.0423	1114.74	1109.78	1104.82	1099.87	1094.93	1528.5	1511.6	1494.9	1478.2	1461.7
w1 = 0.0502	1116.49	1111.55	1106.6	1101.67	1096.73	1530.2	1513.5	1496.9	1480.2	1463.6
w1 = 0.0599	1118.62	1113.69	1108.76	1103.84	1098.93	1532.1	1515.3	1498.7	1482.1	1465.7
w1 = 1	1323.47	1319.84	1316.22	1312.6	1308.97	1699.3	1685	1672	1659.9	1648.3

CN(C)C=O [dimethylformamide]
[1]
Settings	mass density [kg/m3]	speed of sound [m/s]
288.15 K	953.442	1496.6
293.15 K	948.685	1477.3
298.15 K	943.917	1457.8
303.15 K	939.142	1438.4
308.15 K	934.357	1419

CC#N [acetonitrile] + CCC[n+]1ccn(C)c1.[Br-]
[2], w2 = 0
Settings	mass density [kg/m3]	speed of sound [m/s]
288.15 K	787.376	1319.1
293.15 K	782.007	1299
298.15 K	776.609	1278.8
303.15 K	771.183	1258.5
308.15 K	765.725	1238.4

CN(C)C=O [dimethylformamide] + CCC[n+]1ccn(C)c1.[Br-]
[2], w2 = 0
Settings	mass density [kg/m3]	speed of sound [m/s]
288.15 K	953.442	1496.6
293.15 K	948.685	1477.3
298.15 K	943.917	1457.8
303.15 K	939.142	1438.4
308.15 K	934.357	1419

C[S+](C)[O-] [dimethyl sulfoxide] + CCC[n+]1ccn(C)c1.[Br-]
[2], w2 = 0
Settings	mass density [kg/m3]	speed of sound [m/s]
288.15 K	1105.34	1519.1
293.15 K	1100.31	1502.2
298.15 K	1095.28	1485.2
303.15 K	1090.25	1468.3
308.15 K	1085.23	1451.5

CC#N [acetonitrile]
[1]
Settings	mass density [kg/m3]	speed of sound [m/s]
288.15 K	787.376	1319.1
293.15 K	782.007	1299
298.15 K	776.609	1278.8
303.15 K	771.183	1258.5
308.15 K	765.725	1238.4
